Measurements: PMC4019636, “Rational Design of Berberine-Based FtsZ Inhibitors with Broad-Spectrum Antibacterial Activity” (PLoS ONE, 2014)

System: B. subtilis strain 168 cells
Assay: Bacterial morphology and membrane staining studies
Assay type: cell-based
Settings: 4 µM compound
Procedure: The B. subtilis strain 168 cells were grown in LB medium. The cultures at an A600 of 0.01 from an overnight culture were inoculated in the same medium containing different concentrations of the test compounds and grown at 37°C for 4 h. The cells for morphology studies were harvested and resuspended in 100 µL of PBS (phosphate buffered saline) buffer containing 0.25% agarose. For membrane staining, the B. subtilis cells were further incubated with 1.6 µM of FM 4–64 for an additional 30 min at 37°C without shaking before harvested and resuspended in 100 µL PBS buffer containing 0.25% agarose. 10 µL of the suspension mixture were then placed on a microscopic slide pretreated with 0.1% (w/v) poly-L-lysine and the morphology of the bacterial cells was observed under a phase-contrast optical microscope at 40× magnification. The images were captured using an Olympus Bio Imaging Navigator FSX 100 microscope.

**Q.** What does the source list for `COc1ccc2cc3[n+](cc2c1OCCCOc1ccc(Cl)cc1)CCc1cc2c(cc1-3)OCO2` [Compound 2]?
**A.** cell length of B. subtilis (4 h at 37°C, compared to untreated cells): significantly increased; perturbation of the cell membrane (FM 4-64 staining) (B. subtilis 168, compared to untreated cells): did not induce any detectable perturbation
